Key:
SNF3-PDO = experiment: PDO drug response testing with CDK4/6 inhibitor and PARP inhibitor (CellTiter-Glo 3D cell survival assay); assay type: cell-based, human; conditions: for growth ability of SNF3-PDO: single drug; for PDO growth ability: SNF3 subtype and the non-SNF3 subtype (legend of FIGs. 31 and 32)
Description: (§1) Briefly, the fresh breast cancer tissue is cut into small pieces using a sterile surgical knife. The tissue was digested and resuspended in 10 mL of TAC buffer, incubated for 3 minutes to remove red blood cells, and passed through a […] cell strainer (Corning). For passaging, 5 ml of harvesting solution (Trevigen, 3700-100-01) was used to digest the basement membrane extract (BME), which was incubated on ice for 1 hour. Subsequently, the organoids were centrifuged at 350 g for 5 minutes, washed in digestion buffer, and centrifuged. Next, 3 mL of TrypLE Express (Invitrogen) was added, and the organoids were incubated at room temperature for 3 minutes and then mechanically dissociated into small cell clusters using a pipette. The organoids were passaged every 2-3 weeks at a dilution ratio of 1:2-3.
(§2) Drug response testing of triple-negative breast cancer (TNBC) organoids was conducted according to the method of the published paper (Xiao Y, Ma D, Yang YS, Yang F, Ding JH, Gong Y, et al. Comprehensive metabolomics expands precision medicine for triple-negative breast cancer. CELL RES. 2022;32(5):477-90 doi 10.1038/s41422-022-00614-0.). Organoids without undergoing organoid drug treatment were harvested in good condition and digested into single cells. 25 microliters of organoid suspension was added to black cell-repellent surface of a 384-well plate with transparent bottoms (Greiner 781976-SIN) at 1 × 10^3 to 3 × 10^3 cells per well, and cultured for an additional 5-6 days prior to drug treatment. Organoids were co-cultured with the drug for 1 week and then tested for survival. According to the manufacturer's instructions, organoid cell survival rate was assessed by the CellTiter-Glo 3D cell survival assay (Promega, G9683).
In order to gain an in-depth understanding of the biological characteristics of the SNF3 subtype, low-concentration 4-hydroxytamoxifen was used to induce PDO over an extended period to establish a model for studying acquired resistance to endocrine therapy (Xi Jin, Yi-Fan Zhou, Ding Ma, Shen Zhao, Cai-Jin Lin, Yi Xiao, et al. Integrative Molecular Classification of HR+/HER2- Breast Cancer Guides Precision Treatment. Nature Genetics under minor revision. 2023.02.26.).
In view of the high enrichment of SNF3 tumors in homologous recombination deficiency score, chromosomal instability, and cell cycle activity, the response of SNF3 PDOs to CDK4/6 inhibitors and PARP inhibitors was tested. […] In addition, regardless of BRCA mutation, the homologous recombination deficiency score of SNF3 tumors was much higher (FIG. 35). The above results indicated the therapeutic susceptibility of the SNF3 subtype to CDK4/6 inhibitors and PARP inhibitors; therefore, CDK4/6 inhibitors and PARP inhibitors or combinations thereof may be potential accurate treatment strategies for SNF3 tumors.

four subtypes of PDOs = experiment: PDO drug response testing of traditional endocrine therapies (CellTiter-Glo 3D cell survival assay); assay type: cell-based, human; conditions: compared among four subtypes of PDOs (n = 88)
Description: as §1, §2
The sensitivity of four subtypes of PDOs (n = 88) to three traditional endocrine therapies (estrogen deprivation, 4-hydroxytamoxifen (4OHtam), and fulvestrant) was compared on a PDO drug testing platform. […] In order to investigate the potential mechanism of SNF1 tumor sensitivity to endocrine therapy, the endocrine therapy-related pathways in the multi-omics data from Fudan University Shanghai Cancer Center were analyzed. […] In addition, the expression of endocrine therapy resistance pathways was also compared among the four subtypes.

[1] = test system: advanced HR+/HER2- breast cancer; experiment: Real-world retrospective clinical cohort of advanced HR+/HER2- breast cancer; assay type: in vivo, human; conditions: SNF3 and SNF4 subtypes; advanced cohort of FUSCC, n = 277; p = 0.033
Source text: Frequency tables and summary statistics were used to characterize data distribution. Wilcoxon test and Kruskal-Wallis test were used to compare continuous variables and categorical variables, and Pearson chi-square test and Fisher's exact test were used to compare unordered categorical variables. Survival curves were established using the Kaplan-Meier product-limit method and compared with the log-rank test to obtain RFS and PFS. RFS was defined as the time from diagnosis to the first recurrence or diagnosis of contralateral breast cancer. PFS was defined as the interval from the start of treatment to disease progression or death due to any cause (whichever occurs first), or to the time of the last PFS assessment for patients with progression-free survival. Univariate and multivariate Cox proportional hazards regression models were constructed to evaluate the hazard ratio (HR) and the corresponding 95% confidence interval (CI). All analyses were performed using R software package version 3.6.1 (https://cran.r-project.org/).
For deeper insights into the landscape of metastatic HR+/HER2- breast cancer, we constructed a real-world cohort of patients with advanced HR+/HER2- breast cancer from FUSCC and invited other three centers to participate in our real-world study. […] Their tumor progression were evaluated according to RECIST v1.1.

SNF4 tumors = experiment: PDO drug sensitivity testing of tyrosine kinase inhibitors; assay type: cell-based, human; conditions: for IC50: SNF4 tumors compared with other subtypes, PDO
Description: as §1, §2
Next, based on the identified key receptors, 12 tyrosine kinase inhibitors were selected to construct a "tyrosine kinase inhibitor combination," including tyrosine kinase inhibitors targeting the ErbB family (afatinib, lapatinib, pyrotinib), the PDGFR family (axitinib, sunitinib), the VEGFR family (foretinib, apatinib), the TAM receptor (sitravatinib), as well as some multi-target tyrosine kinase inhibitors (sorafenib, vandetanib, regorafenib, famitinib). The combination is used for PDO drug sensitivity testing to verify the tyrosine kinase inhibitor most sensitive to SNF4 tumors (FIG. 38). […] Combining the drug sensitivity results of the above 12 tyrosine kinase inhibitors and the targets of the above four drugs, VEGFR and PDGFR signaling were preliminarily identified as potential therapeutic vulnerabilities of SNF4 tumors.

[2] = test system: signaling pathway activated by PDGF in SNF4 tumor; experiment: PDGF-activated signaling pathway changes after tyrosine kinase inhibitor treatment; assay type: cell-based, human
[3] = test system: SNF4 subtype cancer-associated fibroblasts (CAF); experiment: Efficacy on patient-derived cancer cells co-cultured with fibroblasts; assay type: cell-based, human; conditions: sorafenib (1 µM)
Description: (F-G) The efficacy of sorafenib (1 µM) on patient-derived cancer cells co-cultured with fibroblasts. Scale bar: 100 micrometers. Cancer cells are treated with sorafenib three times. One representative experiment is shown. The experiment is repeated three times, and the results are similar.

With `CCN1CCN(Cc2ccc(Nc3ncc(F)c(-c4cc(F)c5nc(C)n(C(C)C)c5c4)n3)nc2)CC1` [abemaciclib, N-[5-[(4-ethyl-1-piperazinyl)methyl]-2-pyridinyl]-5-fluoro-4-[4-fluoro-2-methyl-1-(1-methylethyl)-1H-benzimidazol-6-yl]-2-pyrimidinamine] the “growth ability of SNF3-PDO” value (SNF3-PDO) was “significantly inhibited” and the PDO growth ability (SNF3-PDO) was “significantly inhibited”.

For 4-hydroxytamoxifen, the survival rate (four subtypes of PDOs; SNF1-PDO) was “lowest survival rate”, the survival rate (four subtypes of PDOs; SNF4-PDO) was “relatively higher survival rate” and the “sensitivity to endocrine therapy” value (SNF3-PDO; SNF3-PDO after long-term induction with low-concentration 4-hydroxytamoxifen, unlike other subtypes) was “less sensitive to endocrine therapy”.

With `O=C(c1cc(Cc2n[nH]c(=O)c3ccccc23)ccc1F)N1CCN(C(=O)C2CC2)CC1` [olaparib] the “growth ability of SNF3-PDO” value (SNF3-PDO) was “significantly inhibited” and the PDO growth ability (SNF3-PDO) was “significantly inhibited”.

For `C[C@]12CC[C@@H]3c4ccc(O)cc4C[C@@H](CCCCCCCCC[S+]([O-])CCCC(F)(F)C(F)(F)F)[C@H]3[C@@H]1CC[C@@H]2O` (some centres unmarked) [fulvestrant], the survival rate (four subtypes of PDOs; SNF1-PDO) was “lowest survival rate”, the survival rate (four subtypes of PDOs; SNF4-PDO) was “relatively higher survival rate” and the “progression-free survival (PFS)” value [1] was “worse progression-free survival”.

`CNC(=O)c1cc(Oc2ccc(NC(=O)Nc3ccc(Cl)c(C(F)(F)F)c3)c(F)c2)ccn1` [regorafenib] was tested, and the IC50 (SNF4 tumors) was “lower than that of other subtypes” and the “cell viability of SNF4 tumors” value (SNF4 tumors; after treatment, Wilcoxon test) was “significantly decreased”.

`CCN(CC)CCN1CCc2[nH]c(/C=C3\C(=O)Nc4ccc(F)cc43)c(C)c2C1=O` [famitinib] was tested, and the IC50 (SNF4 tumors) was “lower than that of other subtypes” and the “signaling pathway activated by PDGF” value [2] was “significantly downregulated”.

For `CNC(=O)c1cc(Oc2ccc(NC(=O)Nc3ccc(Cl)c(C(F)(F)F)c3)cc2)ccn1` [sorafenib], the IC50 (SNF4 tumors) was “lower than that of other subtypes”, the “sensitivity of SNF4 subtype cancer-associated fibroblasts (CAF)” value [3] was “sensitive” and the “signaling pathway activated by PDGF” value [2] was “significantly downregulated”.

From patent EP4730355A1, “TYPING SYSTEM AND METHOD FOR HR-POSITIVE/HER2-NEGATIVE BREAST CANCER” (Lumitype Medical (Huzhou) Co., Ltd., priority 2023, dated 2024)
